Laboratory results as given in article PMC4633474, “Kinetic properties and stability of glucose dehydrogenase from Bacillus amyloliquefaciens SB5 and its potential for cofactor regeneration” (AMB Express, 2015).

Target: T1, GluDH-BS (Bacillus subtilis, UniProt P12310)
T1 construct: gene gdh; full length, plasmid pHGBS, overexpressed in B. subtilis 168 (strain BS), crude cell-free extract
Assay: NADPH formation at […] nm, crude extract
Format: biochemical
Details: glucose, CPB buffer, 37 °C; turnover only

T1 sequence (P12310 whole entry): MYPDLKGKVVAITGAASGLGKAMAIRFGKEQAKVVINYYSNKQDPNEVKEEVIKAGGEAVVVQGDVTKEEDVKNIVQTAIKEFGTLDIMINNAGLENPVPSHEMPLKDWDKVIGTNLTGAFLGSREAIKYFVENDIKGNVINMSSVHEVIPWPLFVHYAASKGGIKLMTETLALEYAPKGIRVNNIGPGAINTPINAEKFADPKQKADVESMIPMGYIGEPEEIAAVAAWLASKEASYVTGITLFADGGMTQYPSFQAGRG

NC(=O)c1ccc[n+]([C@@H]2O[C@H](COP(=O)(O)OP(=O)(O)OC[C@H]3O[C@@H](n4cnc5c(N)ncnc54)[C@H](OP(=O)(O)O)[C@@H]3O)[C@@H](O)[C@H]2O)c1 [NADP^+]
NADPH formation at 340 nm, crude extract: crude GluDH-BS (closed circle) and GluDH-BA (open circle) when using NADP^+ as a cofactor
